Assay results as given in patent US12521381B2, “Anticoccidial agent and method for using the same” (NIHON NOHYAKU CO., LTD., priority 2020, dated 2026).

System: chicken coccidium (Eimeria tenella)
Experiment: Evaluation test of growth inhibition on chicken coccidium (Eimeria tenella)
Type: cell-based
Conditions: 48 h, mammal cells infected with sporozoite of chicken coccidium, indirect immunofluorescence, read-out: EC50 (inhibition of growth of chicken coccidium to a mature schizont)
Experimental: Test Example 1: Evaluation Test of Growth Inhibition on Chicken Coccidium (Eimeria tenella) Each of the benzimidazole compounds represented by General Formula (1) or salts of the compounds according to the present invention was diluted with a regulating liquid to a predetermined concentration and placed in a microtiter plate. To the dilution in the plate, mammal cells infected with a sporozoite of chicken coccidium were incubated. Forty-eight hours later, the degree of inhibition on growth of chicken coccidium to a mature schizont was examined by an indirect immunofluorescence technique, and EC50 was determined by calculation.

## FC(F)(F)C(F)(F)COc1ccc(-c2nc3cc(Br)c(Br)cc3[nH]2)cn1 [Compound 11-5, 5,6-dibromo-2-(6-(2,2,3,3,3-pentafluoropropoxy)pyrid-3-yl)benzimidazole]
  EC50: ≤ 20 µM
